Key:
T. cruzi GDP-MP enzyme = assay: Km determination with the GDP-MP assay; type: biochemical
Experimental: (§1) All enzyme and substrate solution dilutions were prepared in assay buffer comprising 25 mM Tris-HCl (pH 7.5), 150 mM NaCl, 4 mM MgCl2, 0.01% (vol/vol) Tween 20, and 1 mM dithiothreitol in ultrapure water. Biochemical assays were performed in a 50-μl final assay volume using clear 384-well assay microplates (Greiner, catalog no. 781101) at room temperature. Unless stated otherwise, all reagent concentrations are written as final biochemical assay concentrations, and DMSO or compounds were added to assay plates using Echo acoustic dispensers (Labcyte). Reagent addition for high-throughput screening assays was performed using an Xrd-384 liquid dispenser (FluidX, UK) and a BioFill Solo/Xrd-384 16 channel resin nozzle (2.00 to 200 μl) tubing cartridge (FluidX, catalog no. 34-1005-S). Biochemical reactions were terminated by addition of 50 μl of BIOMOL Green (Enzo Life Sciences, catalog no. BML-AK111-1000) reagent, after which absorbance was measured following a 30-min incubation at room temperature. Absorbance measurements were performed at 650 nm using a PHERAStar microplate reader (BMG Labtech, Germany), and the data are represented as relative absorbance units (RAU). Linear and nonlinear regression was performed using the SigmaPlot 12.5 software, unless stated otherwise.
To calculate the Michaelis constant (Km) for the M-1-P substrate, 20-min time course reactions using a fixed concentration of GDP-MP enzyme (3.13 nM), a saturating concentration of GTP substrate (600 μM) mixed with inorganic pyrophosphatase (1 U/ml; Merck, catalogue no. I5907-1MG), and various concentrations of M-1-P substrate (150, 75, 37.5, 18.8, 9.38, 4.69, and 2.34 μM) were performed. The Km for the GTP substrate was acquired in a similar manner using a saturating concentration of M-1-P (150 μM) and various concentrations of GTP substrate (300, 150, 75, 37.5, 18.8, 9.38, and 4.69 μM). In both cases, background control samples were also included that lacked the presence of GDP-MP enzyme. At the end of the time courses, the biochemical reactions were terminated, and absorbance measurements were taken. […]

[1] = molecular target: T1, T. cruzi PMM and GDP-MP enzymes (Trypanosoma cruzi, UniProt Q4CMK4); assay: standard configuration PMM-GDP-MP biochemical assay; details: for pIC50: library stock material, mean n=2; for pIC50 ± SD: repurchased material, n=3
Experimental: as §1
Single-point diversity screening was performed using the standard configuration PMM-GDP-MP biochemical assay and microplates containing compounds in columns 1 to 22 from two diverse small-molecule compound sets covering traditional small-molecule chemical space (DDD, 9,257 compounds; molecular weights between 185.2 and 492.2) and more three-dimensional chemical space (GHCDL, 8,860 compounds; molecular weights between 190.24 and 449.3) at a final concentration of 10 μM (final DMSO concentration = 0.1% [vol/vol]) or a small polar set (16,845 primarily fragment-sized compounds with increased polarity; molecular weights between 88.1 and 476.0) at a final concentration of 300 μM (final DMSO concentration = 0.3% [vol/vol]). Columns 23 and 24 both contained DMSO (either 0.1 or 0.3% [vol/vol] at final assay concentration) and were utilized as “maximum effect” and “minimum effect” control populations, respectively. For screening purposes, 25 μl of a solution containing PMM and GDP-MP enzymes (6.25 and 3.13 nM, respectively) was added to columns 1 to 23, and 25 μl of buffer only was added to column 24. This was followed by the addition of 25 μl of a mixture containing inorganic pyrophosphatase (1 U/ml) and substrates/cofactors (150 μM GTP, 45 μM M-6-P, and 6 μM G-1,6,-BP). The assay plates were incubated at room temperature for 90 min. At the end of the incubation period, the biochemical reactions were terminated, and absorbance measurements were taken. Robust Z′ values were calculated for each assay microplate using the following equation: Robust Z’=1 –((3 ×(1.483 ×(RAU MAD Max)))+(3 ×(1.483 ×(RAU MAD Min))))/(median RAU Max− median RAU Min) where MAD is the median absolute deviation, Max are the maximum effect control samples, and Min are the minimum effect control samples.
RAU values were normalized to percent inhibition values relative to the maximum and minimum effect control populations, and compounds displaying percent inhibition values of ≥30% were selected as hits. Data were processed using IDBS ActivityBase 8.1.2.12 and Dotmatics Limited Vortex v2017.08.69598-59-s software.
Concentration-response assessment of hits using the PMM-GDP-MP assays was performed by adding 25 μl of a solution of PMM and GDP-MP enzymes (6.25 and 3.13 nM, respectively) to columns 1 to 11 and 13 to 23 of microplates containing various concentrations of compounds (10 final assay concentrations ranging from […] at 1 in 3 dilution increments in the presence of 1% [vol/vol] DMSO). Buffer only (25 μl) was added to columns 12 and 24. […]

T. cruzi GDP-MP [2] = molecular target: T2, T. cruzi GDP-MP (Trypanosoma cruzi, UniProt Q4CMK4); assay: standard configuration GDP-MP biochemical assay
Experimental: as §1
Concentration-response assessment of hits using the PMM-GDP-MP assays was performed by adding 25 μl of a solution of PMM and GDP-MP enzymes (6.25 and 3.13 nM, respectively) to columns 1 to 11 and 13 to 23 of microplates containing various concentrations of compounds (10 final assay concentrations ranging from […] at 1 in 3 dilution increments in the presence of 1% [vol/vol] DMSO). Buffer only (25 μl) was added to columns 12 and 24. Columns 11 and 23 were utilized as “maximum effect” control populations (1% [vol/vol] DMSO with enzyme), and columns 12 and 24 were “minimum effect” control populations (1% [vol/vol] DMSO in the absence of enzyme). This was followed by the addition of 25 μl of a mixture containing inorganic pyrophosphatase (1 U/ml) and substrates/cofactors (150 μM GTP, 45 μM M-6-P, and 6 μM G-1,6-BP for the standard configuration assay and 150 μM GTP, 225 μM M-6-P, and 30 μM G-1,6-BP for the high-substrate configuration assay) to the entire assay plate. The standard configuration assay plates were incubated at room temperature for 90 min, and the high-substrate configuration assay plates were incubated for 80 min. Standard and high-substrate configuration GDP-MP assay compound concentration-response assessments were performed as described above by incubating GDP-MP enzyme (3.13 or 0.78 nM) in the presence of GTP (30 or 300 μM), M-1-P (15 or 150 μM), and inorganic pyrophosphatase (1 U/ml) for 50 min at room temperature. Pyrophosphatase counterscreen concentration-response assessments were performed by preincubating compounds with inorganic pyrophosphatase (1 U/ml) for 90 min at room temperature, followed by the addition of inorganic pyrophosphate (10 μM) and a secondary 5-min incubation at room temperature. At the end of the incubation periods, the biochemical reactions were terminated and absorbance measurements were taken. RAU values were normalized to % inhibition values relative to the maximum and minimum effect control populations. pIC50 values, defined as –log[IC50(M)], were calculated by fitting concentration-response data for each independent replicate separately to a four-parameter logistic model, as shown below, using either the IDBS ActivityBase 8.1.2.12 or SigmaPlot 12.5 software. Where appropriate, the top curve plateau parameter was constrained to a value of 100.
The four-parameter logistic model was as follows, where Min is the minimum asymptote and Max is the maximum asymptote: y=Min+Max – Min/1+(10^−logIC50/x)^Hill slope

[3] = molecular target: T1, T. cruzi PMM and GDP-MP enzymes; assay: high-substrate configuration PMM-GDP-MP biochemical assay; details: repurchased material, n=3
Experimental: as §1, with “otherwise. […]” for “otherwise.”

T. cruzi GDP-MP [4] = molecular target: T2, T. cruzi GDP-MP; assay: high-substrate configuration GDP-MP biochemical assay; details: for IC50: GDP-MP, high-substrate configuration, repurchased material, n=3; for mode of inhibition of GDP-MP: from comparison of standard and high-substrate (10-fold) configuration GDP-MP assays
Experimental: as §1
Concentration-response assessment of hits using the PMM-GDP-MP assays was performed by adding 25 μl of a solution of PMM and GDP-MP enzymes (6.25 and 3.13 nM, respectively) to columns 1 to 11 and 13 to 23 of microplates containing various concentrations of compounds (10 final assay concentrations ranging from 990 to 1.92 μM at 1 in 3 dilution increments in the presence of 1% [vol/vol] DMSO). Buffer only (25 μl) was added to columns 12 and 24. Columns 11 and 23 were utilized as “maximum effect” control populations (1% [vol/vol] DMSO with enzyme), and columns 12 and 24 were “minimum effect” control populations (1% [vol/vol] DMSO in the absence of enzyme). This was followed by the addition of 25 μl of a mixture containing inorganic pyrophosphatase (1 U/ml) and substrates/cofactors (150 μM GTP, 45 μM M-6-P, and 6 μM G-1,6-BP for the standard configuration assay and 150 μM GTP, 225 μM M-6-P, and 30 μM G-1,6-BP for the high-substrate configuration assay) to the entire assay plate. […] At the end of the incubation periods, the biochemical reactions were terminated and absorbance measurements were taken. RAU values were normalized to % inhibition values relative to the maximum and minimum effect control populations. pIC50 values, defined as –log[IC50(M)], were calculated by fitting concentration-response data for each independent replicate separately to a four-parameter logistic model, as shown below, using either the IDBS ActivityBase 8.1.2.12 or SigmaPlot 12.5 software. […]

[5] = library stock material, n=1, read-out: pIC50 (converted)
[6] = repurchased material, n=3, read-out: pIC50 ± SD (converted)

T2 sequence (Q4CMK4 entry or part of it): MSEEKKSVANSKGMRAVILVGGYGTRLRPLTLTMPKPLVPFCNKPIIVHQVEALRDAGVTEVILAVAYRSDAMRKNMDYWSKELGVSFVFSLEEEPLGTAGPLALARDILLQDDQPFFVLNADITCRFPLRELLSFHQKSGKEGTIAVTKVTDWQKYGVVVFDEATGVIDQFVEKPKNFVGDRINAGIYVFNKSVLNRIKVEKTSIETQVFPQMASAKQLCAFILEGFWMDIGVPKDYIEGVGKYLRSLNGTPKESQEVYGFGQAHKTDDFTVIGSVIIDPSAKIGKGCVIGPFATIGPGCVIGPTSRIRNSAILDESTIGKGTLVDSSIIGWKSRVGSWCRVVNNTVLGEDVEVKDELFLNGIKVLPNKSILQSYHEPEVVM
T1 sequence (Q4CMK4 entry or part of it): as above
T1 sequence (Q4E4A3 entry or part of it, further chain): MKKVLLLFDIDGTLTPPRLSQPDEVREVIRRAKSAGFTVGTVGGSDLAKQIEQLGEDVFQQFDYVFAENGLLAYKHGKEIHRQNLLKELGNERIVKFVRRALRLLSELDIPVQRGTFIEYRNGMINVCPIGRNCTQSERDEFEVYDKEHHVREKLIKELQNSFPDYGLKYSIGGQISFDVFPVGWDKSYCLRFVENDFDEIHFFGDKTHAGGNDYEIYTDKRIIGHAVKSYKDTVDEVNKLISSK

| Structure (SMILES) | GTP Km of T. cruzi GDP-MP, fold higher than reported for L. donovani (T. cruzi GDP-MP enzyme; vs L. donovani GDP-MP) | GTP Km of T. cruzi GDP-MP, fold higher than reported for L. major (T. cruzi GDP-MP enzyme; vs L. major GDP-MP) | GTP Km of T. cruzi GDP-MP, fold higher than reported for L. mexicana (T. cruzi GDP-MP enzyme; vs L. mexicana GDP-MP) | pIC50 [1] | IC50 (T. cruzi GDP-MP [2]; [5]) | pIC50 ± SD [1] | pIC50 ± SD [3] | IC50 (T. cruzi GDP-MP [2]; [6]) | IC50 (T. cruzi GDP-MP [4]) | mode of inhibition of GDP-MP (T. cruzi GDP-MP [4]) |
| --- | --- | --- | --- | --- | --- | --- | --- | --- | --- | --- |
| Nc1nc2c(ncn2[C@@H]2O[C@H](COP(=O)(O)OP(=O)(O)OP(=O)(O)O)[C@@H](O)[C@H]2O)c(=O)[nH]1 [GTP] | 2.4 fold | 27 fold | 5.3 fold | – | – | – | – | – | – | – |
| CC(C)C(C(=O)O)N1C(=O)C=CC1=O (stereo not drawn) [compound 1] | – | – | – | 4.9 (2) | 25.1 µM | – | – | – | – | – |
| c1ccn2c(CNCCCN3CCC3)cnc2c1 [compound 2] | – | – | – | 3.6 (2) | > 1000 µM | 3.1 ± 0.2 (3) | 3.2 ± 0.2 (3) | > 1000 µM | 794 µM | uncompetitive inhibition |
| CC(=O)OCc1cc(-c2csc(N)n2)ccc1O [compound 3] | – | – | – | 3.5 (2) | 158 µM | 3.9 ± 0.2 (3) | 3.6 ± 0.1 (3) | 126 µM | 316 µM | competitive inhibition |
| N[C@H]1CCN(CCCOc2ccc(C(=O)O)cc2)C1 [compound 4] | – | – | – | 4.0 (2) | 158 µM | – | – | – | – | – |

Source: PMC6761512, “Trypanosoma cruzi Phosphomannomutase and Guanosine Diphosphate-Mannose Pyrophosphorylase Ligandability Assessment” (Antimicrobial Agents and Chemotherapy, 2019)
